Data: paper PMC11992225, “Antibacterial compounds against non-growing and intracellular bacteria” (npj Antimicrobials and Resistance, 2025)

Experiments:
[1] = test system: SOS response in UPEC CFT073; assay: SOS response induction analysis, pAED2 cda' promoter mScarlet-I reporter; format: cell-based, Escherichia coli; conditions: for induction of the SOS response in growing UPEC cultures: 6 h, MMC, BLE, ECH in 1:4 CA-MHB pH 7.4, PLI, SAT, EVO in LPM pH 5.5
Procedure: Since we aimed to test SOS induction in non-growing cultures, it was essential to use a reporter with no leaky expression in the stationary phase. Therefore, we constructed the plasmid pAED2, based on the low copy-number plasmid pSC101, which contains the cda’ promoter in front of the mScarlet-I-encoding reporter gene.
Overnight cultures of CFT073 harboring a reporter plasmid were grown in 3 ml of LB supplemented with 100 µg/ml carbenicillin (Cb), then diluted 1:100 into the medium used for testing. For validation of the pANO1::cda’ reporter, an overnight culture was diluted into CA-MHB (supplemented with 40 mM HEPES, pH 7.4, and 100 µg/ml Cb) and grown to an OD600 ≈ 0.5 at 37 °C with shaking at 200 rpm in an Erlenmeyer flask. […] Empty wells were filled with water. […] The experiment was performed in triplicate.
For analysis of the SOS induction by anti-cancer compounds, the overnight cultures were diluted either into 1:4 diluted CA-MHB (40 mM HEPES, pH 7.4) or LPM (30 mM MES, pH 5.5) that were supplemented with 100 µg/ml Cb. For analysis of the effect on growing bacteria, the cultures were incubated at 37 °C with shaking at 200 rpm in Erlenmeyer flasks for 90 min, to an OD600 ≈ 0.5. Then, 180 μl aliquots were transferred to 96-well plates, and 20 μl of the 200 μM drug solution was added to achieve a final concentration of 20 μM. The plates were incubated in a microplate reader (BioTek Synergy H1) at 37 °C with continuous shaking for 6 h. OD600 and mScarlet fluorescence were recorded throughout the incubation.
For analysis of the effect of anti-cancer compounds on stationary phase- and regrowing bacteria, the cultures were incubated for 24 h at 37 °C with shaking at 200 rpm in Erlenmeyer flasks. […] The samples were incubated for 24 h at 37 °C in standing 1.5 ml tubes. Before and after the drug treatment, 25 μl aliquots were taken and diluted by mixing with 175 μl PBS. OD600 and mScarlet fluorescence were recorded using a microplate reader (BioTek Synergy H1).
After the treatment, stationary-phase bacteria were harvested by centrifugation at 5000 × g for 5 min at 20 °C, washed twice with PBS, and resuspended in 475 μl PBS.

TC7 cells = assay: TC7 cell viability upon drug exposure, MTS assay; format: cell-based; conditions: at the MIC concentrations, 12 h, no bacteria
Procedure: TC7 cells were grown to confluence in transparent 96-well cell culture plates (TPP) in the same cell culture medium used for the in vitro infection assay. Just prior to the experiment, the medium was discarded, and the cells were washed twice with sterile PBS to remove any traces of medium or dead cells. […] The plate was incubated at 37 °C in a CO2 incubator for 12 h, under the same conditions as the infection assay.
The 3-(4,5-dimethylthiazol-2-yl)-5-(3-carboxymethoxyphenyl)-2-(4-sulfophenyl)-2H-tetrazolium (MTS) assay was performed using the CellTiter 96® AQueous One Solution Cell Proliferation Assay kit (Promega), according to the manufacturer’s instructions. Briefly, 20 μl of CellTiter 96 AQueous One Solution Reagent was added to each well, and the plate was incubated for 2 h at 37 °C in a CO2 incubator. The OD490 of the samples was measured using a Spark multimode plate reader (Tecan). The raw values were normalized to the control wells incubated with infection buffer only. The experiment was performed in duplicate.

[2] = test system: non-growing P. aeruginosa DSM1117; assay: Dose-dependent killing analysis (CFU spot-plating) of stationary-phase P. aeruginosa; format: cell-based, Pseudomonas aeruginosa; conditions: for killing, average Δlog10(CFU/ml): P. aeruginosa
Procedure: The cultures were grown and treated for 24 h in 1:4 CA-MHB (pH 7.4).
For survival analysis, bacteria were cultivated as described for the dose–response dilution-regrowth assay. Assays with UPEC were conducted at the CBCS screening facility using 96-well plates with a 200 μl sample volume, and compounds were dispensed using the Echo® (Labcyte) system. P. aeruginosa and S. aureus samples were treated according to the protocol used for the dilution-regrowth experiments. Treated samples were serially diluted 10-fold in PBS, and 10 μl drops were spot-plated onto rectangular LB agar plates using either a Beckman NXP robot (for UPEC) or an Integra VIAFLO96 electronic pipette (for P. aeruginosa and S. aureus). The LB agar plates were incubated overnight at 37 °C and scanned. Colonies were counted at the spots of the lowest dilution where individual colonies could be accurately distinguished. Each colony was manually marked on a separate image layer using the GNU Image Manipulation Program, and counted using NIST’s Integrated Colony Enumerator (NICE 1.4) software. The experiments were performed in three biological replicates.

non-growing UPEC CFT073 = assay: Time-dependent effects of drug treatment on regrowth, UPEC; format: cell-based, Escherichia coli; conditions: E. coli, 10 µM, OD600 6 h after dilution
Procedure: For screening and concentration-dependent characterization of the hit compounds, we used a 24-h incubation to capture their effects, although the actual onset of their activity may occur much sooner. To assess the speed of action, we treated stationary-phase cultures of three organisms with compounds that had previously shown a strong regrowth delay at 10 µM. We selected compounds that, in earlier tests, strongly delayed regrowth, such that diluted cultures remained below an OD600 of 0.12 (indicating no growth) after 6 h for UPEC or 8 h for P. aeruginosa and S. aureus in drug-free medium.
We collected samples at different times during the 24-h incubation, diluted them 2500-fold, and measured the OD600 after 6 or 8 h of further incubation, respectively. […] Rifampicin acts quickly against non-growing S. aureus, while the effects of the other compounds increase gradually during incubation but are already apparent within the first hour of treatment.
Bacteria were cultivated in 1:4 diluted CA-MHB (40 mM HEPES, pH 7.4) for 24 h. Aliquots were dispensed into a 96-well plate, and compounds were added at a 10 µM concentration. […] The OD600 of the samples was measured to assess regrowth using a microplate reader (BioTek Synergy H1) after 6 h for UPEC and 8 h for P. aeruginosa and S. aureus. […]

In the case of `CC1COc2c(N3CCN(C)CC3)c(F)cc3c(=O)c(C(=O)O)cn1c23` (stereo not shown) [Ofloxacin], the “SOS induction during recovery of treated non-growing UPEC” value ([1]; 10 μM, 24 h, then washed and diluted in CA-MHB, single control experiment) is reported as “SOS induction during recovery”.

In the case of `CS[C@H]1SC[C@H]2C(=O)N(C)[C@@H](C(C)C)C(=O)OC[C@@H](NC(=O)c3cnc4ccccc4n3)C(=O)N[C@@H](C)C(=O)N(C)[C@@H]1C(=O)N(C)[C@@H](C(C)C)C(=O)OC[C@@H](NC(=O)c1cnc3ccccc3n1)C(=O)N[C@@H](C)C(=O)N2C` [Echinomycin], the “induction of the SOS response in growing UPEC cultures” value (from here on “induction of the SOS response”) ([1]; 20 μM) is reported as “induced the SOS response”.

For Bleomycin, the “induction of the SOS response” value ([1]; 20 μM) was “induced the SOS response”.

In the case of `C=C[C@]1(C)C[C@@H](OC(=O)CSC(C)(C)CNC(=O)[C@H](N)C(C)C)[C@]2(C)[C@H](C)CC[C@]3(CCC(=O)[C@H]32)[C@@H](C)[C@@H]1O` [Valnemulin], the “toxicity to TC7 epithelial cells” value (TC7 cells) is reported as “toxic”.

With `Cn1c(COP(=O)(NCCBr)NCCBr)cnc1[N+](=O)[O-]` [Evofosfamide] the “induction of the SOS response” value ([1]; 20 μM) was “induced the SOS response” and the “growth inhibition of growing UPEC” value ([1]; 20 μM, LPM pH 5.5, Fig. S7C,D) was “only a slight growth inhibition”.

In the case of `CO[C@@]12[C@H](COC(N)=O)C3=C(C(=O)C(C)=C(N)C3=O)N1C[C@@H]1N[C@@H]12` [Mitomycin C], the “killing, average Δlog10(CFU/ml)” value ([2]; drug concentration 0.1) is reported as 1.020 log10(CFU/ml), the “killing, average Δlog10(CFU/ml)” value ([2]; drug concentration 0.5) is reported as 2.346 log10(CFU/ml) and the “killing, average Δlog10(CFU/ml)” value ([2]; drug concentration 2.5) is reported as 4.887 log10(CFU/ml). The “killing, average Δlog10(CFU/ml)” value ([2]; drug concentration 10) was 4.887 log10(CFU/ml), the “killing of non-growing P. aeruginosa” value ([2]; at 2.5 µM, 24 h treatment) was greater than 4 log10 and the “induction of the SOS response” value ([1]; 20 μM) was “induced the SOS response”.

`C[C@H]1NCc2cc(-c3ccc4c(=O)c(C(=O)O)cn(C5CC5)c4c3OC(F)F)ccc21` [Garenoxacin] was tested, and the “speed of action: regrowth delay over treatment time” value (non-growing UPEC CFT073) was “act more slowly”.
